Measurements published in US9006241B2, “Pyrimidine derivatives” (Noviga Research AB, priority 2011, dated 2015).

System: CCRF-CEM cancer cells - leukemia
Assay: Fluorometric Microculture Cytotoxicity Assay (FMCA), CCRF-CEM
Type: cell-based
Settings: Homo sapiens, 72 h incubation
Text: The Fluorometric Microculture Cytotoxicity Assay, FMCA (Larsson, R., et al.; Anticancer Res, 1989, 9, 1111-1119), is a three day non-clonogenic microplate-based cell viability assay used for measurement of the cytotoxic and/or cytostatic effect of compounds in vitro (Lindhagen, E. et al.; Nat. Protoc., 2008, 3, 1364-1369). FMCA represents a valuable method to measure cytotoxicity in a number of cell types, both cell lines and primary cells from patients (Larsson, R., et al.; Int. J. Cancer, 1992, 50, 177-185; Fridborg, H., et al.; Eur. J. Cancer, 1999. 35, 424-432; Dhar, S., et al.; Br. J. Cancer, 1996, 74, 888-896).
FMCA is based on the principle that fluorescein diacetate (FDA) is converted to the fluorescent probe fluorescein by esterases in the plasma membranes of living cells. For experiments, 96 or 384-well microplates are prepared with compounds and stored at −70° C. until use. Cells are then seeded into the drug-prepared plates and placed in an incubator for 72 h. On the last day of incubation, the plates are washed and a buffer containing FDA is added and incubated with the cells for 45 minutes. Finally the fluorescence per well is measured in a fluorometer and a Survival Index % (SI) for each compound-treated well is calculated with the equation: Compound-treated cells minus blank divided by control cells minus blank. A high SI-value indicates a large percentage of living cells and vice versa.
In subsequent experiments, compounds were tested, along with a number of approved cancer drugs (dasatinib, pazopanib, sorafenib, and sunitinib) as described above. Initially, the acute lymphoblastic leukemia cell line CCRF-CEM was used throughout. In the assay plates, medium was added to six empty wells (blank wells) and wells were filled with PBS and cell suspension and served as control wells. SI-values were then calculated for each compound-treated well as described above. All experiments were conducted twice and a new batch of plates was prepared for each experiment.
For dose-response experiments, 384-well plates were prepared as follows:
Compounds of the invention as well comparative kinase inhibitors sorafenib sunitinib, dasatinib, pazopanib and a reference compound disclosed in WO 2009/071535 (compound #107) were diluted with PBS to a concentration ten-times higher than the desired starting concentration. Then, a Biomek 2000 liquid handling system was employed to serially dilute the compounds in a deep-well 384-well plate. From this plate, assay plates containing 5 μl compound per well were prepared with the Biomek 2000. Certain compounds precipitated when diluted with PBS, and these compounds were therefore prepared in a 96-well plate manually as described above using culture medium RPMI 1640 instead of PBS.
The compounds were also tested at five concentrations, with five times serial dilution on the following cell types: CCRF-CEM, hTERT-RPE1 (normal retinal epithelial cells), hRPTEpiC (normal renal cells), and peripheral blood mononuclear cells (PBMC). Each experiment was performed three times, except for PBMC and hRPTEpiC, which were performed twice. SI-values were calculated, graphs were plotted using GraphPadPrism 5.0 (GraphPad Software Inc. La Jolla, Calif.) and IC50-values for each cell type and compound were determined from the curves.

SMILES	EC50 [nM]
Cc1cc2cc(Nc3nccc(NCCc4c[nH]c5ccccc45)n3)ccc2[nH]1 [Example 22, N^4-[2-(1H-indol-3-yl)ethyl]-N^2-(2-methyl-1H-indol-5-yl)pyrimidine-2,4-diamine]	3400
c1ccc2c(CCNc3nccc(Nc4ccc5[nH]ccc5c4)n3)c[nH]c2c1 [Example 1, N^2-[2-(1H-indol-3-yl)ethyl]-N^4-(1H-indol-5-yl)pyrimidine-2,4-diamine]	4100
CCCOc1ccc2[nH]cc(CCNc3nccc(Nc4ccc5[nH]c(C)cc5c4)n3)c2c1 [Example 48, N^4-(2-methyl-1H-indol-5-yl)-N^2-[2-(5-propoxy-1H-indol-3-yl)ethyl]pyrimidine-2,4-diamine]	1300
COc1ccc2[nH]cc(CCNc3nccc(Nc4ccc5c(c4)ncn5C)n3)c2c1 [Example 52, N^2-[2-(5-methoxy-1H-indol-3-yl)ethyl]-N^4-(1-methyl-1H-benzo[d]imidazol-5-yl)pyrimidine-2,4-diamine]	430
c1ccc2c(CCNc3ccnc(Nc4cccc5[nH]ccc45)n3)c[nH]c2c1 [Example 25, N^4-[2-(1H-indol-3-yl)ethyl]-N^2-(1H-indol-4-yl)pyrimidine-2,4-diamine]	1000 to 10000
COc1ccc2[nH]cc(CCNc3nccc(Nc4ccc5c(c4)nc(CO)n5C)n3)c2c1 [Example 60, (5-{2-[2-(5-methoxy-1H-indol-3-yl)ethylamino]pyrimidin-4-ylamino}-1-methyl-1H-benzo[d]imidazol-2-yl)methanol]	210
COc1ccc2[nH]cc(CCNc3nccc(Nc4ccc5cc[nH]c5c4)n3)c2c1 [Example 20, N^4-(1H-indol-6-yl)-N^2-[2-(5-methoxy-1H-indol-3-yl)ethyl]pyrimidine-2,4-diamine]	140
CCOc1ccc2[nH]cc(CCNc3nccc(Nc4ccc5cc(C)[nH]c5c4)n3)c2c1 [Example 74, N^2-[2-(5-ethoxy-1H-indol-3-yl)ethyl]-N^4-(2-methyl-1H-indol-6-yl)pyrimidine-2,4-diamine]	< 100
Cc1cc2cc(Nc3ccnc(NCCc4c[nH]c5ccccc45)n3)ccc2[nH]1 [Example 3, N^2-[2-(1H-indol-3-yl)ethyl]-N^4-(2-methyl-1H-indol-5-yl)pyrimidine-2,4-diamine]	290
COc1ccc2[nH]cc(CCNc3nccc(Nc4ccc5ccn(C)c5c4)n3)c2c1 [Example 75, N^2-[2-(5-methoxy-1H-indol-3-yl)ethyl]-N^4-(1-methylindol-6-yl)pyrimidine-2,4-diamine]	< 1000
COc1ccc2[nH]cc(CCNc3nc(Nc4cccc5c4ccn5C)cc(N4CCN(C)CC4)n3)c2c1 [Example 89, N^2-[2-(5-methoxy-1H-indol-3-yl)ethyl]-N^4-(1-methylindol-4-yl)-6-(4-methylpiperazin-1-yl)pyrimidine-2,4-diamine]	< 1000
COc1ccc2[nH]cc(CCNc3nccc(Nc4ccc5[nH]c(C(=O)OCCO)cc5c4)n3)c2c1 [Example 17, 2-hydroxyethyl 5-{2-[2-(5-methoxy-1H-indol-3-yl)ethylamino]pyrimidin-4-ylamino}-1H-indole-2-carboxylate]	1400
CCOc1ccc2[nH]cc(CCNc3nccc(Nc4cccc5[nH]c(C)nc45)n3)c2c1 [Example 83, N^2-[2-(5-ethoxy-1H-indol-3-yl)ethyl]-N^4-(2-methyl-1H-benzimidazol-4-yl)pyrimidine-2,4-diamine]	< 1000
COc1cc2[nH]cc(CCNc3nccc(Nc4ccc5[nH]c(C)cc5c4)n3)c2cc1OC [Example 50, N^2-[2-(5,6-dimethoxy-1H-indol-3-yl)ethyl]-N^4-(2-methyl-1H-indol-5-yl)pyrimidine-2,4-diamine]	180
COc1ccc2[nH]cc(CCNc3nccc(Nc4ccc5[nH]cnc5c4)n3)c2c1 [Example 18, N^4-(1H-benzo[d]imidazol-5-yl)-N^2-[2-(5-methoxy-1H-indol-3-yl)ethyl]pyrimidine-2,4-diamine]	420
COc1ccc2[nH]cc(CCN(C)c3nccc(Nc4ccc5[nH]c(CO)cc5c4)n3)c2c1 [Example 59, [5-(2-{[2-(5-methoxy-1H-indol-3-yl)ethyl][methyl]amino}pyrimidin-4-ylamino)-1H-indol-2-yl]methanol]	1000 to 10000

SMILES	EC50 [nM]
COc1ccc2[nH]cc(CCNc3nc(Nc4ccc5[nH]c(C)cc5c4)cc(N4CCN(C)CC4)n3)c2c1 [Example 30, N^2-[2-(5-methoxy-1H-indol-3-yl)ethyl]-N^4-(2-methyl-1H-indol-5-yl)-6-(4-methylpiperazin-1-yl)pyrimidine-2,4-diamine]	3000
c1ccc2c(CCNc3ccnc(Nc4ccc5cc[nH]c5c4)n3)c[nH]c2c1 [Example 24, N^4-[2-(1H-indol-3-yl)ethyl]-N^2-(1H-indol-6-yl)pyrimidine-2,4-diamine]	1000 to 10000
Cc1cc2cc(Nc3ccnc(NCCc4c[nH]c5ccc(O)cc45)n3)ccc2[nH]1 [Example 8, 3-{2-[4-(2-methyl-1H-indol-5-ylamino)pyrimidin-2-ylamino]ethyl}-1H-indol-5-ol]	3100
COc1ccc2[nH]cc(CCNc3nccc(N(C)c4ccc5c(c4)cc(C)n5C)n3)c2c1 [Example 62, N^4-(1,2-dimethyl-1H-indol-5-yl)-N^2-[2-(5-methoxy-1H-indol-3-yl)ethyl]-N^4-methylpyrimidine-2,4-diamine]	1000 to 10000
CCOc1ccc2[nH]cc(CCNc3nc(Nc4cccc5c4ccn5C)cc(C(N)=O)n3)c2c1 [Example 88, 2-[2-(5-ethoxy-1H-indol-3-yl)ethylamino]-6-[(1-methylindol-4-yl)amino]pyrimidine-4-carboxamide]	< 100
COc1ccc2[nH]cc(CCNc3nccc(Nc4cccc5c4ccn5C)n3)c2c1 [Example 54, N^2-[2-(5-methoxy-1H-indol-3-yl)ethyl]-N^4-(1-methyl-1H-indol-4-yl)pyrimidine-2,4-diamine]	2.8
COc1ccc2c(CCNc3nccc(Nc4ccc5[nH]c(C)cc5c4)n3)c[nH]c2c1 [Example 11, N^2-[2-(6-methoxy-1H-indol-3-yl)ethyl]-N^4-(2-methyl-1H-indol-5-yl)pyrimidine-2,4-diamine]	150
Cc1cc2cc(Nc3ccnc(NCCc4c[nH]c5ccc(OCCN6CCOCC6)cc45)n3)ccc2[nH]1 [Example 6, N^4-(2-methyl-1H-indol-5-yl)-N^2-{2-[5-(2-morpholinoethoxy)-1H-indol-3-yl]ethyl}pyrimidine-2,4-diamine]	2900
Cn1ccc2c(Nc3ccnc(NCCc4c[nH]c5ccc(O)cc45)n3)cccc21 [Example 79, 3-[2-({4-[(1-methylindol-4-yl)amino]pyrimidin-2-yl}amino)ethyl]-1H-indol-5-ol]	< 1000
COc1ccc2[nH]cc(CCNc3nc(Nc4ccc5c(c4)nc(C)n5C)cc(C(N)=O)n3)c2c1 [Example 86, 6-[(1,2-dimethylbenzimidazol-5-yl)amino]-2-[2-(5-methoxy-1H-indol-3-yl)ethylamino]pyrimidine-4-carboxamide]	< 1000
CCOc1ccc2[nH]cc(CCNc3nc(C)cc(Nc4ccc5[nH]c(C)cc5c4)n3)c2c1 [Example 55, N^2-[2-(5-ethoxy-1H-indol-3-yl)ethyl]-6-methyl-N^4-(2-methyl-1H-indol-5-yl)pyrimidine-2,4-diamine]	53
COc1cc(C)c2[nH]cc(CCNc3nccc(Nc4ccc5[nH]c(C)cc5c4)n3)c2c1 [Example 51, N^2-[2-(5-methoxy-7-methyl-1H-indol-3-yl)ethyl]-N^4-(2-methyl-1H-indol-5-yl)pyrimidine-2,4-diamine]	76
CCOc1ccc2[nH]cc(CCNc3ncc(N)c(Nc4ccc5[nH]c(C)cc5c4)n3)c2c1 [Example 90, N^2-[2-(5-ethoxy-1H-indol-3-yl)ethyl]-N^4-(2-methyl-1H-indol-5-yl)pyrimidine-2,4,5-triamine]	< 100
CCOc1ccc2[nH]cc(CCNc3nccc(Nc4cccc5c4ccn5C)n3)c2c1 [Example 80, N^2-[2-(5-ethoxy-1H-indol-3-yl)ethyl]-N^4-(1-methylindol-4-yl)pyrimidine-2,4-diamine]	< 100
COc1ccc2[nH]cc(CCNc3ccnc(Nc4ccc5[nH]c(C)cc5c4)n3)c2c1 [Example 23, N^4-[2-(5-methoxy-1H-indol-3-yl)ethyl]-N^2-(2-methyl-1H-indol-5-yl)pyrimidine-2,4-diamine]	59
